# Results published in patent US20140377216A1, “ANTICANCER FUSION PROTEIN” (ADAMED SP. Z.O.O., priority 2011, published 2014).
# Columns and labels:
# [1] = system: human liver cancer PLC/PRF/5; experiment: Liver cancer model, Experiment B: PLC/PRF/5 xenograft; assay type: in vivo, Crl:SHO-PrkdcscidHrhr mice; details: rhTRAIL 50 mg/kg i.v. six times every second day, 43th day
# Protocol: (§1) Tumor size was measured using electronic calliper, tumor volume was calculated using the formula: (a^2×b)/2, where a=shorter diagonal of the tumor (mm) and b=longer diagonal of the tumor (mm). Inhibition of tumor growth was calculated using the formula:
# (§2) TGI[%](Tumor growth inhibition)=(WT/WC)×100−100%
# (§3) wherein WT is the average tumor volume in the treatment group, and WC is the average tumor volume in the control group.
# On day 0 Crl:SHO-Prkdc^scidHr^hr mice were grafted subcutaneously (s.c.) in the right flank region with 7×10^6 of PLC/PRF/5 cells suspended in 0.1 ml of the 3:1 mixture HBSS buffer:Matrigel using syringe with a 0.5×25 mm needle (Bogmark). When tumors reached the size of 72-536 mm^3 (day 29), mice were randomized to obtain the average size of tumors in the group of ˜205 mm^3 and assigned to treatment groups. The treatment groups were administered with the preparations of fusion protein of the invention of Ex. 16^b (50 mg/kg) and rhTRAIL114-281 (50 mg/kg) as a comparison and reference compound 5-FU (5-Fluorouracil, Sigma-Aldrich) (30 mg/kg). The preparations were administered intravenously (i.v.) six times every second day, except 5-FU, which was applied intraperitoneally (i.p.) in the schedule (q1dx5)×2. The control group received formulation buffer.
# When an experimental group reached the average tumor size of ˜1000 mm^3, mice were sacrificed by cervical dislocation.
# human liver cancer HepG2 = experiment: Liver cancer model, Experiment A: HepG2 xenograft; assay type: in vivo, Crl:SHO-PrkdcscidHrhr mice; details: 50 mg/kg i.v. six times every second day, 42th day
# Protocol: as §1, §2, §3
# On day 0 Crl:SHO-Prkdc^scidHr^hr mice were grafted subcutaneously (s.c.) in the right flank region with 7×10^6 of HepG2 cells suspended in 0.1 ml of the 3:1 mixture HBSS buffer:Matrigel using syringe with a 0.5×25 mm needle (Bogmark). When tumors reached the size of 64-529 mm^3 (day 25), mice were randomized to obtain the average size of tumors in the group of −230 mm^3 and assigned to treatment groups. The treatment groups were administered with the preparations of fusion protein of the invention of Ex. 16^b (80 mg/kg) and rhTRAIL114-281 (50 mg/kg) as a comparison and reference compound 5-FU (5-Fluorouracil, Sigma-Aldrich) (20 mg/kg). The preparations were administered intravenously (i.v.) six times every second day, 5-FU was applied intraperitoneally (i.p.). The control group received formulation buffer.
# When the therapeutic group reached the average tumor size of ˜1000 mm^3, mice were sacrificed by cervical dislocation.
substance,measurement,setting,value
"rhTRAIL114-281: recombinant human soluble TRAIL, amino acids 114-281 of hTRAIL, used as comparative reference",TGI (tumor growth inhibition) relative to the control,[1],25.2%
same,TGI (tumor growth inhibition) relative to the control,human liver cancer HepG2,23.2%
